System: NCI/ADR-RES complex spheroid viability
Assay: Anticancer human tumor NCI/ADR-RES cell line growth inhibition;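 note: spheroids exposed to compounds for 7 days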;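 for viability, T/C: 100% = DMSO vehicle treated spheroids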
Conditions: for IC50: curve of first compound; for viability, T/C: stronger effect = lower value
Method in brief: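 Complex spheroids of tumor cells with HUVEC and human MSCs, exposed to iadademstat combined with other agents. Each agent tested in half-log steps from near clinical Cmax (else 10 microM top), DMSO ≤0.25%.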

## Nc1ccccc1NC(=O)c1ccc(CNC(=O)OCc2cccnc2)cc1 + NC1CCC(NC2CC2c2ccccc2)CC1
Second compound 0.1 µM
  IC50: 1.17 µM
Second compound 0.316 µM
  IC50: 1.34 µM
Second compound 1 µM
  IC50: 1.27 µM
Second compound 3.16 µM
  IC50: 0.979 µM
Second compound 10 µM
  IC50: 0.622 µM
Second compound 0.1 µM, first compound 0.00949 µM
  viability, T/C: 106%
Second compound 0.1 µM, first compound 0.03 µM
  viability, T/C: 96.8%
Second compound 0.1 µM, first compound 0.0949 µM
  viability, T/C: 93.4%
Second compound 0.1 µM, first compound 0.3 µM
  viability, T/C: 80.8%
Second compound 0.1 µM, first compound 0.949 µM
  viability, T/C: 52.6%
Second compound 0.1 µM, first compound 3 µM
  viability, T/C: 32.7%
Second compound 0.316 µM, first compound 0.00949 µM
  viability, T/C: 110%
Second compound 0.316 µM, first compound 0.03 µM
  viability, T/C: 98.6%
Second compound 0.316 µM, first compound 0.0949 µM
  viability, T/C: 96.8%
Second compound 0.316 µM, first compound 0.3 µM
  viability, T/C: 93.8%
Second compound 0.316 µM, first compound 0.949 µM
  viability, T/C: 57.9%
Second compound 0.316 µM, first compound 3 µM
  viability, T/C: 30.5%
Second compound 1 µM, first compound 0.00949 µM
  viability, T/C: 106%
Second compound 1 µM, first compound 0.03 µM
  viability, T/C: 100%
Second compound 1 µM, first compound 0.0949 µM
  viability, T/C: 97.6%
Second compound 1 µM, first compound 0.3 µM
  viability, T/C: 76.5%
Second compound 1 µM, first compound 0.949 µM
  viability, T/C: 56.8%
Second compound 1 µM, first compound 3 µM
  viability, T/C: 32.9%
Second compound 3.16 µM, first compound 0.00949 µM
  viability, T/C: 102%
Second compound 3.16 µM, first compound 0.03 µM
  viability, T/C: 100%
Second compound 3.16 µM, first compound 0.0949 µM
  viability, T/C: 93%
Second compound 3.16 µM, first compound 0.3 µM
  viability, T/C: 79.6%
Second compound 3.16 µM, first compound 0.949 µM
  viability, T/C: 49.8%
Second compound 3.16 µM, first compound 3 µM
  viability, T/C: 30.7%
Second compound 10 µM, first compound 0.00949 µM
  viability, T/C: 95.1%
Second compound 10 µM, first compound 0.03 µM
  viability, T/C: 79.8%
Second compound 10 µM, first compound 0.0949 µM
  viability, T/C: 72.7%
Second compound 10 µM, first compound 0.3 µM
  viability, T/C: 65.5%
Second compound 10 µM, first compound 0.949 µM
  viability, T/C: 42.4%
Second compound 10 µM, first compound 3 µM
  viability, T/C: 22.2%

## O=C(c1cc(Cc2n[nH]c(=O)c3ccccc23)ccc1F)N1CCN(C(=O)C2CC2)CC1 + NC1CCC(NC2CC2c2ccccc2)CC1
Second compound 0.1 µM
  IC50: > 10 µM
Second compound 0.316 µM
  IC50: > 10 µM
Second compound 1 µM
  IC50: > 10 µM
Second compound 3.16 µM
  IC50: > 10 µM
Second compound 10 µM
  IC50: > 10 µM
Second compound 0.1 µM, first compound 0.0316 µM
  viability, T/C: 99.8%
Second compound 0.1 µM, first compound 0.1 µM
  viability, T/C: 97.5%
Second compound 0.1 µM, first compound 0.316 µM
  viability, T/C: 104%
Second compound 0.1 µM, first compound 1 µM
  viability, T/C: 102%
Second compound 0.1 µM, first compound 3.16 µM
  viability, T/C: 102%
Second compound 0.1 µM, first compound 10 µM
  viability, T/C: 87.6%
Second compound 0.316 µM, first compound 0.0316 µM
  viability, T/C: 109%
Second compound 0.316 µM, first compound 0.1 µM
  viability, T/C: 101%
Second compound 0.316 µM, first compound 0.316 µM
  viability, T/C: 105%
Second compound 0.316 µM, first compound 1 µM
  viability, T/C: 111%
Second compound 0.316 µM, first compound 3.16 µM
  viability, T/C: 96.2%
Second compound 0.316 µM, first compound 10 µM
  viability, T/C: 101%
Second compound 1 µM, first compound 0.0316 µM
  viability, T/C: 100%
Second compound 1 µM, first compound 0.1 µM
  viability, T/C: 108%
Second compound 1 µM, first compound 0.316 µM
  viability, T/C: 112%
Second compound 1 µM, first compound 1 µM
  viability, T/C: 107%
Second compound 1 µM, first compound 3.16 µM
  viability, T/C: 105%
Second compound 1 µM, first compound 10 µM
  viability, T/C: 91.5%
Second compound 3.16 µM, first compound 0.0316 µM
  viability, T/C: 99.1%
Second compound 3.16 µM, first compound 0.1 µM
  viability, T/C: 102%
Second compound 3.16 µM, first compound 0.316 µM
  viability, T/C: 97.4%
Second compound 3.16 µM, first compound 1 µM
  viability, T/C: 96%
Second compound 3.16 µM, first compound 3.16 µM
  viability, T/C: 104%
Second compound 3.16 µM, first compound 10 µM
  viability, T/C: 87.3%
Second compound 10 µM, first compound 0.0316 µM
  viability, T/C: 94.8%
Second compound 10 µM, first compound 0.1 µM
  viability, T/C: 97.4%
Second compound 10 µM, first compound 0.316 µM
  viability, T/C: 93.1%
Second compound 10 µM, first compound 1 µM
  viability, T/C: 88.8%
Second compound 10 µM, first compound 3.16 µM
  viability, T/C: 92.5%
Second compound 10 µM, first compound 10 µM
  viability, T/C: 91.7%
